We go through 22 molecules from patent US20220153766A1, “CONDENSED TRICYCLIC COMPOUND USED AS KINASE INHIBITOR” (Hangzhou Innogate Pharma Co., Ltd., priority 2019, published 2022).

The structures appear in SMILES notation.

Experiment [1] addresses Ba/F3_EGFR del19/T790M/C797S cells (Homo sapiens, UniProt P00533, T790M/C797S, cells depend on it, form not given). As to the kind of experiment: Ba/F3_EGFR (del19-T790M-C797S) cell proliferation inhibition, CTG, method 1. The experiment is classed as cell-based. As to conditions: 700 cells/well, 72 h, read-out: Ba/F3_EGFR (del19-T790M-C797S) cell proliferation inhibition (IC50 value) Method 1. How it is done: The cells were cultured in a 37° C., 5% CO2 incubator.
Cell plating and compound treatment: 1) Cells are routinely cultured until the cell saturation is 80%-90%, and when the number reaches the requirement, the cells are collected. 2) Resuspend in the corresponding fresh medium, take a small amount of cells to count, and prepare a cell suspension with a suitable density. 3) Inoculate the cell suspension into a 384-well plate at 700 cells/well, 30 μL per well. 4) Use Echo to add the compound to the corresponding cell well. The maximum starting concentration of the compound is 1-10 μM, 3 folds dilution, 8 concentrations.
CTG method detection: 1) Add 30 μL of CTG reagent (CelltiterGlo kit) to each well, and let it stand for 30 minutes at 37° C. and 5% CO2 in the dark. 2) Use Envision instrument to read the chemiluminescence signal value.
Data analysis: IC50 results are analyzed by GraphPad Prism 6 software. […] X: log value of compound concentration; Y: inhibition rate (% inhibition); inhibition rate (% inhibition)=(blank control well reading−compound well reading)/(blank control well reading−positive control reading)×100.

In the next experiment the target is ALK (Homo sapiens, UniProt Q9UM73). As to the kind of experiment: ALK kinase activity inhibition, Caliper mobility shift assay, method 1. The experiment is classed as biochemical. How it is done:
2. ALK Kinase Activity Inhibition Experiment: Method 1: In vitro enzymatic activity of ALK was measured using Caliper mobility shift assay. […] Add 10 μL of 2.5-fold enzyme solution and incubate at room temperature for 10 minutes, then add 10 μL of 2.5-fold substrates (Peptide FAM-P22 and ATP) solution. […] Read conversion rate data on Caliper EZ Reader II (Caliper Life Sciences). Convert the conversion rate into inhibition rate (% inhibition=(max−conversion rate)/(max−min)*100). Max refers to the conversion rate of the DMSO control, and min refers to the conversion rate without enzyme activity. With the compound concentration and inhibition rate on the abscissa and ordinate, draw the curve, use XLFit excel add-in version 5.4.0.8 software to fit the curve and calculate the IC50.

In a further experiment the target is EGFR (C797S) (Homo sapiens, UniProt P00533, C797S). In words: EGFR (C797S) kinase activity inhibition, Lantha screen Assay. The experiment is classed as biochemical. The settings on record: kinase 10 nM, ATP 0.1 μM. Here is the method:
1. EGFR (C797S) Kinase Activity Inhibition Experiment: The Lantha screen Assay method was used to test the inhibitory activity of the compounds at a kinase EGFR (C797S) concentration of 10 nM and an ATP concentration of 0.1 μM. The control samples were Staurosporine. Experimental Steps: […] 2) Control sample Staurosporine and test samples preparation: Staurosporine and the compounds of the embodiment of the present invention are formulated into a gradient concentration solution in 100% DMSO, and diluted to 10% DMSO with the above-mentioned buffer, and added to a 384-well plate. For example, if the initial concentration of the compound is 10 μM, 100% DMSO is used to prepare a 1000 μM solution, and 10 concentration gradients are diluted, and 100 nL solution is transferred to a 384-well plate with Echo*LIQUID HANDLE RS (LABCYTE, USA). […] Transfer 5 μL to the 384-well plate and incubate with the compound for 10-15 minutes. […] Transfer 5 μL to the 384-well plate to initiate the reaction, and incubate at room temperature for 30 minutes. [table] 5) Use TR-Fret dilution buffer to prepare 2-fold detection solution. The final concentration of Antibody is 2 nM and the final concentration of EDTA is 10 mM. Transfer 10 μL of detection solution to the reaction wells of the 384-well plate, shake and mix, and incubate at room temperature for 60 min. 6) Read the ratio of excitation at 340 nm and emission at 520 nm to 495 nm on Envision, and calculate the inhibition rate. 7) Fit IC50 with XL-fit software.

Another experiment addresses MAP4K1 (HPK1) (Homo sapiens, UniProt Q92918). In words: MAP4K1 (HPK1) kinase activity inhibition, Caliper mobility shift assay. The experiment is classed as biochemical. As to conditions: kinase 1.25 nM, ATP 10.1 μM. How it is done:
4. MAP4K1 (HPK1) Kinase Activity Inhibition Experiment: Caliper mobility shift assay was used to detect the inhibitory effect of the compound on MAP4K1 (HPK1) kinase activity. The test concentration of the compound starts at 500 nM, and is diluted 5 folds into 5 concentration points. Use a dispenser Echo 550 to transfer 250 nL 100-fold final concentration of the compound to the target plate 3573, add 10 μL of MAP4K1 (HPK1) kinase solution with a final concentration of 1.25 nM, and incubate for 10 minutes at room temperature (the negative control well contains 10 μL kinase buffer and 250 nL 100% DMSO; the positive control well contains 10 μL kinase solution and 250 nL 100% DMSO). On the kinase MAP4K1 (HPK1), add 15 μL of ATP with a final concentration of 10.1 μM and 3 μM substrate peptide No. 25 mixed solution to react for 120 minutes. Add 30 μL of stop solution containing EDTA to stop the kinase reaction. Use Caliper EZ Reader to read the conversion rate. Inhibition rate %=(Average positive control conversion rate %−Sample conversion rate %/(Average positive control conversion rate %−Average negative control conversion rate %). Among them: negative control wells represent the conversion rate readings without enzyme activity; positive control wells represent the conversion rate readings of wells without compound inhibition. Take the log value of the concentration as the X-axis, and the percentage inhibition rate on the Y-axis. Log (inhibitor) vs. response—Variable slope of analysis software GraphPad Prism 5 was used to fit the curve to obtain the IC50 value of each compound on the enzyme activity. Calculation formula: Y=Bottom+(Top−Bottom)/(1+10 ^((Log IC50−X)*HillSlope)).

Sequence of EGFR (C797S) (P00533 25-1210 C797S): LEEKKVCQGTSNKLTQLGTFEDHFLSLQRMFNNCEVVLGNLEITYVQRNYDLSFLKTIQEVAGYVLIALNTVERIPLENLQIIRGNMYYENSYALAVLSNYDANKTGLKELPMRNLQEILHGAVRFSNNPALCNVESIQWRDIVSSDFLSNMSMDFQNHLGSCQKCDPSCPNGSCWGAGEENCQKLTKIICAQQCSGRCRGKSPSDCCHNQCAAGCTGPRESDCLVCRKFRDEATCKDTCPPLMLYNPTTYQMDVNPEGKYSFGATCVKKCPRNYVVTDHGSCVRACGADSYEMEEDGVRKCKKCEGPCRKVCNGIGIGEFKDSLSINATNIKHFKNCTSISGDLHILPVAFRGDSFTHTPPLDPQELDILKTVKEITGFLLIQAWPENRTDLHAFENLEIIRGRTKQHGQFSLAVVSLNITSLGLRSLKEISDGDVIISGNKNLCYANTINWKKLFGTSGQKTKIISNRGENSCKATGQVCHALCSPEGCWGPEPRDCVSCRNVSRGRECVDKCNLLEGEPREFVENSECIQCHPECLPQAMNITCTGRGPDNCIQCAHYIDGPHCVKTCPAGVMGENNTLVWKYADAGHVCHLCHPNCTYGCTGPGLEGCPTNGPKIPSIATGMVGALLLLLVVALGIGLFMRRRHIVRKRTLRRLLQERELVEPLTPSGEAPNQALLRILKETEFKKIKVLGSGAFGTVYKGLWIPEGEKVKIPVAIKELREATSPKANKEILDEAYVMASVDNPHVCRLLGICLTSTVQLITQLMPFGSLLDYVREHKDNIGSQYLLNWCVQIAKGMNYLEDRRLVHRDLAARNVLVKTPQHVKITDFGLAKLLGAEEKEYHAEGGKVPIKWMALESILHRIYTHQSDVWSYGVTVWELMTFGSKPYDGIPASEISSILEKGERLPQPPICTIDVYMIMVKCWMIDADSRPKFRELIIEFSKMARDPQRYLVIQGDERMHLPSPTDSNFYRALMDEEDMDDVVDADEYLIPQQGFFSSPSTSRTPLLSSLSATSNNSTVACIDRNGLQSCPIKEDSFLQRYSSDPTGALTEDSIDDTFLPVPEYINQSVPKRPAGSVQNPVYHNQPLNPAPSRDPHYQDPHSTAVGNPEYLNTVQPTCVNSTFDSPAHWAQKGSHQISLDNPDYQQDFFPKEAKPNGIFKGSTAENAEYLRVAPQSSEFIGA
Sequence of ALK (Q9UM73 19-1620): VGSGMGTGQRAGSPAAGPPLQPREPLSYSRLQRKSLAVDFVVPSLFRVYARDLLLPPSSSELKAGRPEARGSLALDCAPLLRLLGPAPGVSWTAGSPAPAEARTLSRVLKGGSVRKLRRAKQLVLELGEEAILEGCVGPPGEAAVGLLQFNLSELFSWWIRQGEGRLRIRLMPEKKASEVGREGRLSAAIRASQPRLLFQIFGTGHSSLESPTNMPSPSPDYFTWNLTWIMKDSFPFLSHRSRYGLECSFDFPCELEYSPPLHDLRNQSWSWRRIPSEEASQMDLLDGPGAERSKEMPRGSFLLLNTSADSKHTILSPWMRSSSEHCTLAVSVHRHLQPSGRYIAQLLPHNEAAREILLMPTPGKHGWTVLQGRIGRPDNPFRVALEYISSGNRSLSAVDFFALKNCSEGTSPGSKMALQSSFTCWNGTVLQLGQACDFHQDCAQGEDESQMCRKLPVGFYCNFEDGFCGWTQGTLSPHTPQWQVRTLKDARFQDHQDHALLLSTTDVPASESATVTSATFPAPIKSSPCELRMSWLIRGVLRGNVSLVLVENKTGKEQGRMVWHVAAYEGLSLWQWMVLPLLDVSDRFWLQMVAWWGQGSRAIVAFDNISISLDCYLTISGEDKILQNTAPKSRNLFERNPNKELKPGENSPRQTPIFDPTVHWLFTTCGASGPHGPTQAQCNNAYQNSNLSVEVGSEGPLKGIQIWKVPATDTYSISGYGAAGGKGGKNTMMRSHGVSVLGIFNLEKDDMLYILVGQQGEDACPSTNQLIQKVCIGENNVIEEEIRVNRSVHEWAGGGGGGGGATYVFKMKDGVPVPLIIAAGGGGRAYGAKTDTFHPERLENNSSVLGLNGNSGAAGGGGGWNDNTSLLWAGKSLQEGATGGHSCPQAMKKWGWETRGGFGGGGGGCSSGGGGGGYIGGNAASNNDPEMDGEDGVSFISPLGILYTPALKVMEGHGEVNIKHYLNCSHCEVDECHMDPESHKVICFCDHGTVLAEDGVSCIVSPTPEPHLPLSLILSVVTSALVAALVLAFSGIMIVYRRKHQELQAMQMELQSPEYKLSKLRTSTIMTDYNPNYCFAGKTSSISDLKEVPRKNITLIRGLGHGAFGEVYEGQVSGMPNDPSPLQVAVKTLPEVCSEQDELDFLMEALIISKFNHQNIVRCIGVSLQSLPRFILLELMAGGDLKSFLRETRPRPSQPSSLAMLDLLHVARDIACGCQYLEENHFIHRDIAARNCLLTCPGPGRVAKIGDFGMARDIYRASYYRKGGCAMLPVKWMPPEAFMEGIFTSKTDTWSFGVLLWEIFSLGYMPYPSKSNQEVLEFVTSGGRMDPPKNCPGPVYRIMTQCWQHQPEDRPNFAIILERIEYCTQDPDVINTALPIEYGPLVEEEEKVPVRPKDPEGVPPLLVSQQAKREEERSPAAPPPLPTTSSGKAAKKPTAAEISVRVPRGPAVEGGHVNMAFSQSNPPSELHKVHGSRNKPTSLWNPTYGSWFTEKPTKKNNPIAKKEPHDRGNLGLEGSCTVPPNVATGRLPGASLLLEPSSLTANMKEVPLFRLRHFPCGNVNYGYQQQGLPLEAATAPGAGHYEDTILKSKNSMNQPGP
Sequence of Ba/F3_EGFR del19/T790M/C797S cells (P00533 with tags, fused parts or gaps DEL746-750/T790M/C797S, form open): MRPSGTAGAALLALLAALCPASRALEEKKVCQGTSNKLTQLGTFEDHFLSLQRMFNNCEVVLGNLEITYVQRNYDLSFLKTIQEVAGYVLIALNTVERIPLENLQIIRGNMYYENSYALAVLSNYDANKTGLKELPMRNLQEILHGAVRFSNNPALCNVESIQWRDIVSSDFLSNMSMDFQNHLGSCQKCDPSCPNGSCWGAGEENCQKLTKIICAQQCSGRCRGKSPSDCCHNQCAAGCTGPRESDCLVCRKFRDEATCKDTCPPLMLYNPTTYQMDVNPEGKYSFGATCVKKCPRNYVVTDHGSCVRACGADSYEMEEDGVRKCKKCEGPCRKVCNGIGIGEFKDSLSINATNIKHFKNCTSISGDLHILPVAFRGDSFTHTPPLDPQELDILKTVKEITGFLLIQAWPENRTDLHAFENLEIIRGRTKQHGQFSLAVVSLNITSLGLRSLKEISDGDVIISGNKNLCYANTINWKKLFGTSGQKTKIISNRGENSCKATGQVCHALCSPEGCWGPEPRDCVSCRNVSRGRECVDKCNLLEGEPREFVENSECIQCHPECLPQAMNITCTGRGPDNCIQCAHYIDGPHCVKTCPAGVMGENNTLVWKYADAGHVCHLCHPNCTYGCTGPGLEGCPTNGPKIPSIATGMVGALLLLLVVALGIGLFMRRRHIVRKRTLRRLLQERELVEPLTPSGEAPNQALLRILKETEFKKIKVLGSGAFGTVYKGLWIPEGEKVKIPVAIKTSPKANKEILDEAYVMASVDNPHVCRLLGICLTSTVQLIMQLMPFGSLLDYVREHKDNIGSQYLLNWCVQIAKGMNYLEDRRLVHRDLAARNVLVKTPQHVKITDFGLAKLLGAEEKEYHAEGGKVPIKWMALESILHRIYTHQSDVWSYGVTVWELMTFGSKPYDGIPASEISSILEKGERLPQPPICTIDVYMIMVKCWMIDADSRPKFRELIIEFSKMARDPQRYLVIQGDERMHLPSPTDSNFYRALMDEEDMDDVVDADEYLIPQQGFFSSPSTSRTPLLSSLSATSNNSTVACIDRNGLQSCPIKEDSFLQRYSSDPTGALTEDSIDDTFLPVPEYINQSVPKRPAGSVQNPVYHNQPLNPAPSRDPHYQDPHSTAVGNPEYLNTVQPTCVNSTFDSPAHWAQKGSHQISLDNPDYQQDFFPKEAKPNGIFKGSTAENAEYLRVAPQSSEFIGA
Sequence of MAP4K1 (HPK1) (Q92918 whole entry): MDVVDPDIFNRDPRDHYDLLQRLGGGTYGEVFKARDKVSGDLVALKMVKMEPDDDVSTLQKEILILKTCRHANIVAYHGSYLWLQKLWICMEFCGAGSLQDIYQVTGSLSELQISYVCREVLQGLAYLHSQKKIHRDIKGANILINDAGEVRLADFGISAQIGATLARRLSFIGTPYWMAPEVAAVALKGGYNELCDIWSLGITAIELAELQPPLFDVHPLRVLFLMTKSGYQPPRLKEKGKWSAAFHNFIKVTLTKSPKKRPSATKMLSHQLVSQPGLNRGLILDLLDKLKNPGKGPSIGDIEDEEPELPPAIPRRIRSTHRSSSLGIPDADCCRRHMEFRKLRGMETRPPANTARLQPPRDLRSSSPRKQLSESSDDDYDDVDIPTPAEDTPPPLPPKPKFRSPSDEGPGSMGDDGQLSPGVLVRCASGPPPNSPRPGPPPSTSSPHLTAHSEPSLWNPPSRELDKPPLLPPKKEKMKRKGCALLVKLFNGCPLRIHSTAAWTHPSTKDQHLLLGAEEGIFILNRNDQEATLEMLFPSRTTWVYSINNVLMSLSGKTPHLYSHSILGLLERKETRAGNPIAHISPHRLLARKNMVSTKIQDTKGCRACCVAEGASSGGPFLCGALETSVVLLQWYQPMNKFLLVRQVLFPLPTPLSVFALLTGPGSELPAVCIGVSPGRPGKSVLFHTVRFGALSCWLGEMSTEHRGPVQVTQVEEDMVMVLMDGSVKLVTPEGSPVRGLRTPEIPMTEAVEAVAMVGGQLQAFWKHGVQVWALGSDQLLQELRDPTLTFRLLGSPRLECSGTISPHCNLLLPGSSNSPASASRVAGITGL

The term IC50 denotes the concentration that inhibits the measured activity by half. Consider `C=CC(=O)N1CCN2c3ccc(Nc4ncc(Cl)c(Nc5ccccc5P(C)(C)=O)n4)cc3OC[C@@H]2C1` [Compound 6S], for which, in experiment [1], the GI50 lay in the range of 0.02 to 0.1 µM. Further, the IC50 on ALK and at EGFR (C797S) was 0.001 to 0.05 µM each time.
As for `Cc1cc(Nc2ncc(Cl)c(Nc3ccccc3P(C)(C)=O)n2)cc2c1OC[C@@H]1CNCCN21` [Compound 24S], in experiment [1], the GI50 was in the range of 0.02 to 0.1 µM.
With `CP(C)(=O)c1ccccc1Nc1nc(Nc2ccc3c(c2)OC[C@@H]2CNCCN32)ncc1Cl` [Compound 4S], the GI50 in experiment [1] fell in the range of 0.02 to 0.1 µM. The IC50 at ALK and against EGFR (C797S) was 0.001 to 0.05 µM each time.
Regarding `CN1CCN2c3ccc(Nc4ncc(Cl)c(Nc5ccccc5P(C)(C)=O)n4)cc3OC[C@@H]2C1` [Compound 1S], the GI50 in experiment [1] was < 0.02 µM. Also, the IC50 at ALK and against EGFR (C797S) was 0.001 to 0.05 µM throughout.
Turning to `CP(C)(=O)c1ccccc1Nc1nc(Nc2ccc3c(c2)OC[C@H]2CNCCN32)ncc1Cl` [Compound 4R], the GI50 in experiment [1] lay in the range of 0.02 to 0.1 µM. The concentration for half-maximal inhibition (IC50) on ALK and against EGFR (C797S) was 0.001 to 0.05 µM each time.
Turning to `CP(C)(=O)c1ccccc1Nc1nc(Nc2ccc3c(c2)OC[C@H]2CN(CC#N)CCN32)ncc1Cl` [Compound 9R], in experiment [1], the GI50 lay in the range of 0.02 to 0.1 µM. Further, the IC50 at ALK fell in the range of 0.001 to 0.05 µM; against EGFR (C797S), 0.25 to 1 µM.
Turning to `C=CS(=O)(=O)N1CCN2c3ccc(Nc4ncc(Cl)c(Nc5ccccc5P(C)(C)=O)n4)cc3OC[C@H]2C1` [Compound 19R], the GI50 in experiment [1] was < 0.02 µM. Also, the IC50 at MAP4K1 (HPK1) is ≤ 0.001 µM.
Consider `COCCCC(=O)N1CCN2c3ccc(Nc4ncc(Cl)c(Nc5ccccc5P(C)(C)=O)n4)cc3OC[C@H]2C1` [Compound 28R], for which the GI50 in experiment [1] is 0.02 to 0.1 µM.
Same read-out and setting: the same measure for `Cc1cc(Nc2ncc(Cl)c(Nc3ccccc3P(C)(C)=O)n2)cc2c1N1CCNC[C@@H]1CO2` [Compound 23R]: 0.02 to 0.1 µM.
On to `CP(C)(=O)c1ccccc1Nc1nc(Nc2ccc3c(c2)OC[C@H]2CN(S(=O)(=O)C4CC4)CCN32)ncc1Cl` [Compound 2R], for which the GI50 in experiment [1] lay in the range of 0.02 to 0.1 µM. Also, the values for the IC50 at ALK and on EGFR (C797S) were 0.001 to 0.05 µM and 0.05 to 0.25 µM, respectively.
The matching figures for `CC(=O)N1CCN2c3ccc(Nc4ncc(Cl)c(Nc5ccccc5P(C)(C)=O)n4)cc3OC[C@H]2C1` [Compound 5R]: 0.1 to 0.2 µM, 0.001 to 0.05 µM and 0.05 to 0.25 µM.
The matching figures for `CN1CCC(N2CCN3c4ccc(Nc5ncc(Cl)c(Nc6ccccc6P(C)(C)=O)n5)cc4OC[C@H]3C2)CC1` [Compound 11R]: < 0.02 µM, 0.001 to 0.05 µM and 0.001 to 0.05 µM.
On the same counts, the results for `CCN1CCN2c3ccc(Nc4ncc(Cl)c(Nc5ccccc5P(C)(C)=O)n4)cc3OC[C@H]2C1` [Compound 8R] are 0.02 to 0.1 µM, 0.001 to 0.05 µM and 0.001 to 0.05 µM.
With `CP(C)(=O)c1ccccc1Nc1nc(Nc2ccc3c(c2)OC[C@H]2CN(CCO)CCN32)ncc1Cl` [Compound 7R], the IC50 lay within 0.001 to 0.05 µM at ALK and 0.05 to 0.25 µM at EGFR (C797S).
With `COCCN1CCN2c3ccc(Nc4ncc(Cl)c(Nc5ccccc5P(C)(C)=O)n4)cc3OC[C@H]2C1` [Compound 10R], the GI50 in experiment [1] fell in the range of 0.02 to 0.1 µM. Also, the IC50 on ALK and against EGFR (C797S) was 0.001 to 0.05 µM each time.
As to `COC/C=C/C(=O)N1CCN2c3ccc(Nc4ncc(Cl)c(Nc5ccccc5P(C)(C)=O)n4)cc3OC[C@H]2C1` [Compound 20R], in experiment [1], the GI50 lay within 0.02 to 0.1 µM.
Regarding `CP(C)(=O)c1ccccc1Nc1nc(Nc2ccc3c(c2)OC[C@H]2CN(CC(F)(F)F)CCN32)ncc1Cl` [Compound 13R], the GI50 in experiment [1] lay in the range of 0.02 to 0.1 µM. Further, the IC50 on ALK and against EGFR (C797S) was 0.05 to 0.25 µM each time.
As for `CN1CCN2c3ccc(Nc4ncc(Cl)c(Nc5ccccc5P(C)(C)=O)n4)cc3OCC2C1` (racemic) [Compound 1], the IC50 at ALK and on EGFR (C797S) was 0.001 to 0.05 µM throughout.
In the case of `C=CC(=O)N1CCN2c3ccc(Nc4ncc(Cl)c(Nc5ccccc5P(C)(C)=O)n4)cc3OC[C@H]2C1` [Compound 6R], the GI50 in experiment [1] lay in the range of 0.02 to 0.1 µM. Also, the IC50 was in the range of 0.001 to 0.05 µM at ALK and 0.05 to 0.25 µM against EGFR (C797S).
In the case of `CP(C)(=O)c1ccccc1Nc1nc(Nc2ccc3c(c2)OC[C@H]2CN(C4CCOCC4)CCN32)ncc1Cl` [Compound 3R], the GI50 in experiment [1] fell in the range of 0.02 to 0.1 µM. Further, the IC50 at ALK and against EGFR (C797S) was 0.001 to 0.05 µM in each case.
Take `C#CC(=O)N1CCN2c3ccc(Nc4ncc(Cl)c(Nc5ccccc5P(C)(C)=O)n4)cc3OC[C@H]2C1` [Compound 17R]: the GI50 in experiment [1] is < 0.02 µM.
On to `CP(C)(=O)c1ccccc1Nc1nc(Nc2ccc3c(c2)OC[C@@H]2COCCN32)ncc1Cl` [Compound 12S], for which the IC50 at ALK lay in the range of 0.001 to 0.05 µM; at EGFR (C797S) it was 0.05 to 0.25 µM.
